From US9856216B2, “Compounds as TNIK, IKKε and TBK1 inhibitors and pharmaceutical composition comprising same” (GREEN CROSS CORPORATION, priority 2015, dated 2018) come the findings set out here.

One test addresses T1, TBK1 (Homo sapiens, UniProt Q9UHD2).
T1 construct: purchased Promega V3991
T1 sequence (Q9UHD2 1-729): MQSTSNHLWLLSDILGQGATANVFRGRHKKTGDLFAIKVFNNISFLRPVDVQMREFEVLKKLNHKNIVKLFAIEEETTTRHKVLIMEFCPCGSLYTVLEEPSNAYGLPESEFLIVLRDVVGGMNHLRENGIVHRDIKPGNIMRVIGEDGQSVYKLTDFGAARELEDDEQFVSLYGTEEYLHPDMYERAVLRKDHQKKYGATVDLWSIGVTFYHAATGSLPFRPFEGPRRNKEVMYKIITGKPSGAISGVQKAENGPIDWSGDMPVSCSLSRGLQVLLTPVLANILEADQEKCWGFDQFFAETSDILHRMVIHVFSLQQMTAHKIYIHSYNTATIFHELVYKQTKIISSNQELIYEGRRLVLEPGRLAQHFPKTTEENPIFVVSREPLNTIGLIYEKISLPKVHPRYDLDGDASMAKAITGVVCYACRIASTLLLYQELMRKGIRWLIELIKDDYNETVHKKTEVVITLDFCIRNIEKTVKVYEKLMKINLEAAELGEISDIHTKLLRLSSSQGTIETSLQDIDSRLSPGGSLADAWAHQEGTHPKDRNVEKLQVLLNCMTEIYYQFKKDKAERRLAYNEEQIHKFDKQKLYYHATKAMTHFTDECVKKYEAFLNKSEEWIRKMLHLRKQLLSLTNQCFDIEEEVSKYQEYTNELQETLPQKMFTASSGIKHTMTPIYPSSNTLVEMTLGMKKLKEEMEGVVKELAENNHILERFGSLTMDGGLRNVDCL
Briefly: ADP-Glo Kinase Assay, inhibition activity on TBK1. It is filed as biochemical. The protocol:
(§1) The inhibition activities on TNIK, IKKε and TBK1 were measured by a luminometer, TNIK/IKKε/TBK1 Kinase Enzyme System (Promega, Ca# V4158; Invitrogen, PR8031B, Promega, Ca# V3991) and ADP-Glo Kinase Assay using ADP-Glo™ Kinase Analysis Kit (Promega, Ca# V9101) and a kinase reaction buffer [40 mM Tris(pH 7.5), 20 mM MgCl2, 0.1 mg/mL BSA] in accordance with the manufacturer's protocol.
(In general: ADP-Glo turns the ADP formed in a reaction into a luminescent signal.)

In the next test the target is T2, IKKε (Homo sapiens, UniProt Q14164).
T2 construct: purchased Invitrogen PR8031B
T2 sequence (Q14164 1-716): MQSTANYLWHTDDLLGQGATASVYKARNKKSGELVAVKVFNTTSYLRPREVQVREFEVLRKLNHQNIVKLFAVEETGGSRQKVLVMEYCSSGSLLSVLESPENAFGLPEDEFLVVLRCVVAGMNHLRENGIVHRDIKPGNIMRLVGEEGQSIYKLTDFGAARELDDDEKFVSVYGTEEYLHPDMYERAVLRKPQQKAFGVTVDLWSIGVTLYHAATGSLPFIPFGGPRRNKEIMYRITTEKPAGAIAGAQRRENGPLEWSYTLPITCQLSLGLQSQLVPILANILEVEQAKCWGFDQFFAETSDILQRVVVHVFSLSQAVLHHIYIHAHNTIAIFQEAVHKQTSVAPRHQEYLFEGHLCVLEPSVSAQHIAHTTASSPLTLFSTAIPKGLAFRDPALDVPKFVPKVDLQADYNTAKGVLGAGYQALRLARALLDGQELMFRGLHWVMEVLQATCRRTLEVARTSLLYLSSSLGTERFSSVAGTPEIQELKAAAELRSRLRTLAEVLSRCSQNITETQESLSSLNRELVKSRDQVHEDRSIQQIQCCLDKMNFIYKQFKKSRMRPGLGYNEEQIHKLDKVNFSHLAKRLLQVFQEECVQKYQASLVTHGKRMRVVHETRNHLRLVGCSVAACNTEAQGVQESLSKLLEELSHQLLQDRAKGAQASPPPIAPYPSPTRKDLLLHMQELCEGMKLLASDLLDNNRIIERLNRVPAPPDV
Briefly: ADP-Glo Kinase Assay, inhibition activity on IKKε. It is filed as biochemical. The protocol: as §1

The IC50 is the point on the concentration scale where inhibition reaches its midpoint. A high value points to weaker potency in that assay.

Consider `CC(=O)Nc1ccc(-c2ccnc(Nc3cccc(F)c3)n2)c2c1C(=O)NC2` [Example 163, N-(7-(2-((3-fluorophenyl)amino)pyrimidin-4-yl)-3-oxoisoindolin-4-yl) acetamide], for which the IC50 against TBK1 is 4000 nM; at IKKε, above 10000 nM.

With `CC(=O)Nc1ccc(-c2ccnc(Nc3cccc(C)c3)n2)c2c1C(=O)NC2` [Example 164, N-(3-oxo-7-(2-(m-tolylamino)pyrimidin-4-yl)isoindolin-4-yl) acetamide], the results for the IC50 at TBK1 and on IKKε were 350 nM and 830 nM, respectively.

As for `CC(=O)Nc1ccc(-c2ccnc(Nc3ccc(C)cc3)n2)c2c1C(=O)NC2` [Example 165, N-(3-oxo-7-(2-(p-tolylamino)pyrimidin-4-yl)isoindolin-4-yl) acetamide], the IC50 at TBK1 and against IKKε was above 10000 nM in each case.

As to `CCC(=O)Nc1ccc(-c2ccnc(Nc3cccc(OC)c3)n2)c2c1C(=O)NC2` [Example 166, N-(7-(2-((3-methoxyphenyl)amino)pyrimidin-4-yl)-3-oxoisoindolin-4-yl)propionamide], the results for the IC50 against TBK1 and against IKKε were 94 nM and above 10000 nM, respectively.

With `COc1cccc(Nc2nccc(-c3ccc(N(C)C)c4c3CNC4=O)n2)c1` [Example 266, 7-(Dimethylamino)-4-(2-((3-methoxyphenyl)amino)pyrimidin-4-yl)isoindolin-1-one], the IC50 on TBK1 amounted to 750 nM; against IKKε it was 1960 nM.

Take `CN(C)c1ccc(-c2ccnc(Nc3cccc(F)c3)n2)c2c1C(=O)NC2` [Example 267, 7-(Dimethylamino)-4-(2-((3-fluorophenyl)amino)pyrimidin-4-yl)isoindolin-1-one]: the IC50 stood at 3980 nM against TBK1 and 5510 nM at IKKε.

Turning to `CCCCNc1ccc(-c2ccnc(Nc3cccc(OC)c3)n2)c2c1C(=O)NC2` [Example 268, 7-(Butylamino)-4-(2-((3-methoxyphenyl)amino)pyrimidin-4-yl)isoindolin-1-one], the IC50 against TBK1 came to 320 nM; against IKKε it was 880 nM.

For `CCCCN(C)c1ccc(-c2ccnc(Nc3cccc(OC)c3)n2)c2c1C(=O)NC2` [Example 269, 7-(Butyl(methyl)amino)-4-(2-((3-methoxyphenyl)amino)pyrimidin-4-yl)isoindolin-1-one], the 50% inhibitory concentration (IC50) on TBK1 came out at 2550 nM; on IKKε, 5970 nM.

As for `CCCCN(C)c1ccc(-c2ccnc(Nc3cccc(OC)c3)n2)c2c1C(=O)N(C)C2` [Example 270, 7-(Butyl(methyl)amino)-4-(2-((3-methoxyphenyl)amino)pyrimidin-4-yl)-2-methylisoindolin-1-one], the IC50 at TBK1 and on IKKε was above 10000 nM in each case.
